Experimental data published in the supplement of paper PMC6004109.

Experiments:
Settings in all cases: temperature: 37 °C
[1] = test system: Candida glabrata ZIM 2344 (RPMI); assay: FICI minimum (fractional inhibitory concentration index, Loewe) (dimensionless); higher = less synergy / more antagonism
Experimental: (§1)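 CLSI M27-A3 checkerboard broth microdilution of an immunomodulatory drug (or amoxicillin) combined with an antifungal against S. cerevisiae and C. glabrata isolates. Growth was read as OD600 after incubation at 37 °C (48 h for the reported MICs). Reported quantities are the FICI (Loewe: MIC50 for azoles and immunomodulators, MIC90 for AMB; ≤0.5 synergy, ≥4 antagonism), as minimum and maximum over the surface, and the Bliss-independence sum of statistically significant ΔE (positive = synergy). Clinical isolates were tested in RPMI; C. glabrata ATCC 2001 and its pdr1Δ mutant were tested in YPD.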

[2] = test system: Candida glabrata ZIM 2365 (RPMI); assay: as above
Experimental: as §1

[3] = test system: Candida glabrata ZIM 2369 (RPMI); assay: as above
Experimental: as §1

[4] = test system: Candida glabrata ZIM 2382 (RPMI); assay: as above
Experimental: as §1

[5] = test system: Candida glabrata ZIM 2385 (RPMI); assay: as above
Experimental: as §1

[6] = test system: Candida glabrata ZIM 2389 (RPMI); assay: as above
Experimental: as §1

[7] = test system: Saccharomyces cerevisiae ZIM 2247 (RPMI); assay: as above
Experimental: as §1

[8] = test system: Saccharomyces cerevisiae ZIM 2255 (RPMI); assay: as above
Experimental: as §1

[9] = test system: Saccharomyces cerevisiae ZIM 2269 (RPMI); assay: as above
Experimental: as §1

[10] = test system: Saccharomyces cerevisiae ZIM 2558 (RPMI); assay: as above
Experimental: as §1

[11] = test system: Saccharomyces cerevisiae ZIM 2566 (RPMI); assay: as above
Experimental: as §1

[12] = test system: Candida glabrata ZIM 2344 (RPMI); assay: FICI maximum (fractional inhibitory concentration index, Loewe) (dimensionless); higher = less synergy / more antagonism
Experimental: as §1

[13] = test system: Candida glabrata ZIM 2365 (RPMI); assay: as above
Experimental: as §1

[14] = test system: Candida glabrata ZIM 2369 (RPMI); assay: as above
Experimental: as §1

[15] = test system: Candida glabrata ZIM 2382 (RPMI); assay: as above
Experimental: as §1

[16] = test system: Candida glabrata ZIM 2385 (RPMI); assay: as above
Experimental: as §1

[17] = test system: Candida glabrata ZIM 2389 (RPMI); assay: as above
Experimental: as §1

[18] = test system: Saccharomyces cerevisiae ZIM 2247 (RPMI); assay: as above
Experimental: as §1

[19] = test system: Saccharomyces cerevisiae ZIM 2255 (RPMI); assay: as above
Experimental: as §1

[20] = test system: Saccharomyces cerevisiae ZIM 2269 (RPMI); assay: as above
Experimental: as §1

[21] = test system: Saccharomyces cerevisiae ZIM 2558 (RPMI); assay: as above
Experimental: as §1

[22] = test system: Saccharomyces cerevisiae ZIM 2566 (RPMI); assay: as above
Experimental: as §1

[23] = test system: Candida glabrata ZIM 2344 (RPMI); assay: Bliss independence sum of statistically significant ΔE (measured minus predicted growth inhibition) over checkerboard surface (fraction (sum of ΔE; 1 = 100%)); higher = more synergy
[24] = test system: Candida glabrata ZIM 2365 (RPMI); assay: as above
[25] = test system: Candida glabrata ZIM 2369 (RPMI); assay: as above
[26] = test system: Candida glabrata ZIM 2382 (RPMI); assay: as above
[27] = test system: Candida glabrata ZIM 2385 (RPMI); assay: as above
[28] = test system: Candida glabrata ZIM 2389 (RPMI); assay: as above
[29] = test system: Saccharomyces cerevisiae ZIM 2247 (RPMI); assay: as above
[30] = test system: Saccharomyces cerevisiae ZIM 2255 (RPMI); assay: as above
[31] = test system: Saccharomyces cerevisiae ZIM 2269 (RPMI); assay: as above
[32] = test system: Saccharomyces cerevisiae ZIM 2558 (RPMI); assay: as above
[33] = test system: Saccharomyces cerevisiae ZIM 2566 (RPMI); assay: as above
[34] = test system: Candida glabrata ATCC 2001 (YPD); assay: FICI minimum (fractional inhibitory concentration index, Loewe) (dimensionless); higher = less synergy / more antagonism
Experimental: as §1

[35] = test system: Candida glabrata ATCC 2001 (YPD); assay: FICI maximum (fractional inhibitory concentration index, Loewe) (dimensionless); higher = less synergy / more antagonism
Experimental: as §1

[36] = test system: Candida glabrata ATCC 2001 (YPD); assay: Bliss independence sum of statistically significant ΔE (measured minus predicted growth inhibition) over checkerboard surface (fraction (sum of ΔE; 1 = 100%)); higher = more synergy
[37] = test system: Saccharomyces cerevisiae ZIM 2260 (RPMI); assay: FICI minimum (fractional inhibitory concentration index, Loewe) (dimensionless); higher = less synergy / more antagonism
Experimental: as §1

[38] = test system: Saccharomyces cerevisiae ZIM 2260 (RPMI); assay: FICI maximum (fractional inhibitory concentration index, Loewe) (dimensionless); higher = less synergy / more antagonism
Experimental: as §1

[39] = test system: Saccharomyces cerevisiae ZIM 2260 (RPMI); assay: Bliss independence sum of statistically significant ΔE (measured minus predicted growth inhibition) over checkerboard surface (fraction (sum of ΔE; 1 = 100%)); higher = more synergy

Compound: CC1(C)S[C@@H]2[C@H](NC(=O)[C@H](N)c3ccc(O)cc3)C(=O)N2[C@H]1C(=O)O [amoxicillin] + OC(Cn1cncn1)(Cn1cncn1)c1ccc(F)cc1F [fluconazole]
- FICI minimum [1]: 0.508
- FICI minimum [2]: 1.01
- FICI minimum [3]: 1.01
- FICI minimum [4]: 1.01
- FICI minimum [5]: 1.02
- FICI minimum [6]: 1.02
- FICI minimum [7]: 1.02
- FICI minimum [8]: 2.01
- FICI minimum [9]: 1.03
- FICI minimum [10]: 0.508
- FICI minimum [11]: 0.516
- FICI maximum [12]: 0.75
- FICI maximum [13]: 1.25
- FICI maximum [14]: 1.25
- FICI maximum [15]: 1.25
- FICI maximum [16]: 1.5
- FICI maximum [17]: 2.25
- FICI maximum [18]: 2.12
- FICI maximum [19]: 2.12
- FICI maximum [20]: 2
- FICI maximum [21]: 1.25
- FICI maximum [22]: 1.25
- Bliss independence sum [23]: 0.963
- Bliss independence sum [24]: -0.019
- Bliss independence sum [25]: 1.02
- Bliss independence sum [26]: 0.34
- Bliss independence sum [27]: 1.92
- Bliss independence sum [28]: 2.98
- Bliss independence sum [29]: -1.44
- Bliss independence sum [30]: -2.93
- Bliss independence sum [31]: -1.87
- Bliss independence sum [32]: 1.93
- Bliss independence sum [33]: 0.455

Compound: COc1c(C)c2c(c(O)c1C/C=C(\C)CCC(=O)O)C(=O)OC2 [mycophenolic acid] + CC(=O)N1CCN(c2ccc(OCC3COC(Cn4ccnc4)(c4ccc(Cl)cc4Cl)O3)cc2)CC1 [ketoconazole]
- FICI minimum [34]: 1.25
- FICI maximum [35]: 4.12
- Bliss independence sum [36]: -2.13

Compound: COc1c(C)c2c(c(O)c1C/C=C(\C)CCC(=O)O)C(=O)OC2 [mycophenolic acid] + CCC(C)n1ncn(-c2ccc(N3CCN(c4ccc(OCC5COC(Cn6cncn6)(c6ccc(Cl)cc6Cl)O5)cc4)CC3)cc2)c1=O [itraconazole]
- FICI minimum [1]: 0.174
- FICI minimum [2]: 0.516
- FICI minimum [3]: 1.01
- FICI minimum [4]: 0.508
- FICI minimum [5]: 0.508
- FICI minimum [6]: 0.508
- FICI minimum [7]: 1.02
- FICI minimum [8]: 0.517
- FICI minimum [37]: 1
- FICI minimum [9]: 1.03
- FICI minimum [10]: 2.01
- FICI maximum [12]: 1.62
- FICI maximum [13]: 4.12
- FICI maximum [14]: 2.25
- FICI maximum [15]: 0.75
- FICI maximum [16]: 1.02
- FICI maximum [17]: 1.25
- FICI maximum [18]: 2.53
- FICI maximum [19]: 1.13
- FICI maximum [38]: 2.16
- FICI maximum [20]: 1.25
- FICI maximum [21]: 4.25
- Bliss independence sum [23]: 10
- Bliss independence sum [24]: 0.327
- Bliss independence sum [25]: -0.825
- Bliss independence sum [26]: 0.427
- Bliss independence sum [27]: 3.12
- Bliss independence sum [28]: 4.83
- Bliss independence sum [29]: -0.0362
- Bliss independence sum [30]: 2.31
- Bliss independence sum [39]: -2.11
- Bliss independence sum [31]: 0.69
- Bliss independence sum [32]: -4.07

Compound: COc1c(C)c2c(c(O)c1C/C=C(\C)CCC(=O)O)C(=O)OC2 [mycophenolic acid] + CC[C@@H]([C@H](C)O)n1ncn(-c2ccc(N3CCN(c4ccc(OC[C@@H]5CO[C@@](Cn6cncn6)(c6ccc(F)cc6F)C5)cc4)CC3)cc2)c1=O [posaconazole]
- FICI minimum [34]: 1.5
- FICI maximum [35]: 4.12
- Bliss independence sum [36]: -3.21

Compound: COc1c(C)c2c(c(O)c1C/C=C(\C)CCC(=O)O)C(=O)OC2 [mycophenolic acid] + C[C@@H](c1ncncc1F)[C@](O)(Cn1cncn1)c1ccc(F)cc1F [voriconazole]
- FICI minimum [34]: 1.06
- FICI maximum [35]: 2.5
- Bliss independence sum [36]: -2.31
